According to ChEMBL document CHEMBL4842340, “Development of Cagrilintide, a Long-Acting Amylin Analogue” (J Med Chem, 2021):
Converted amounts (≈) assume the structure as drawn. *1 amine or outer side, *2 acyl side, *3 side chain or, on linkers, in order; H or OH if unused. Where a SMILES comes first, the peptide text is derived from it. Bridges are numbered along the chain shown (N, C = ends). The star is where a group is joined. C20 diacid = O=C(O)CCCCCCCCCCCCCCCCCCC(=O)*; γGlu = O=C(O)[C@H](CCC(=O)[*:2])N[*:1]

What was measured:
Rattus norvegicus [1] = assay: Reduction in food intake in Sprague-Dawley rat at 30 nmol/kg, sc administered as single dose measured upto 24 hrs relative to control; type: functional; set-up: scale not given: the % may be the effect or the level left; conditions: time hrs <=24
Rattus norvegicus [2] = assay: Reduction in food intake in Sprague-Dawley rat at 30 nmol/kg, sc administered as single dose measured after 24 to 48 hrs relative to control; type: functional; set-up: scale not given: the % may be the effect or the level left; conditions: time 24-48 hrs
[3] = Agonist activity at human AMY3R (CT+RAMP3) expressed in Hollex1 cells incubated for 3 hrs by luminescence assay; type: cell-based; conditions: Hollex1, 3 h
[4] = Agonist activity at human calcitonin receptor expressed in BHK570 cells assessed as increase in intracellular cAMP concentration incubated for 3 hrs in absence of albumin by CRE luciferase reporter gene assay; type: cell-based; conditions: BHK570, 3 h
Homo sapiens [5] = organism: Homo sapiens; assay: Ratio of EC50 for human calcitonin receptor expressed in BHK570 cells to EC50 for human AMY3R (CT+RAMP3) expressed in Hollex1 cells; type: cell-based
[6] = Agonist activity at rat AMY3R (CT+RAMP3) expressed in tk-ts13 cells assessed as increase in intracellular cAMP level incuabted for 25 mins by CRE luciferase reporter gene assay; type: cell-based; conditions: tk-ts13, 25 min
[7] = Agonist activity at rat calcitonin receptor expressed in BHK-13 cells assessed as increase in intracellular cAMP concentration incubated for 25 mins by CRE luciferase reporter gene assay; type: cell-based; conditions: BHK-13, 25 min
Rattus norvegicus [8] = organism: Rattus norvegicus; assay: Ratio of EC50 for rat calcitonin receptor expressed in BHK-13 cells to EC50 for rat AMY3R (CT+RAMP3) expressed in tk-ts13 cells; type: cell-based
[9] = Displacement of [125I]-amylin from human AMY3R (CTR+RAMP3) expressed in BHK-13 cells measured after 120 mins by scintillation proximity assay; type: cell-based
[10] = Displacement of [125I]-calcitonin from human calcitonin receptor expressed in tk-ts 13 cells measured after 120 mins by scintillation proximity assay; type: cell-based; conditions: tk-ts13
Homo sapiens [11] = organism: Homo sapiens; assay: Ratio of IC50 for displacement of [125I]-calcitonin from human calcitonin receptor expressed in tk-ts 13 cells to IC50 for displacement of [125I]-amylin from human AMY3R (CTR+RAMP3) expressed in BHK-13 cells; type: cell-based
[12] = Displacement of [125I]-amylin from rat AMY3R (CTR+RAMP3) expressed in BHK-13 cells measured after 120 mins by scintillation proximity assay; type: cell-based
[13] = Displacement of [125I]-calcitonin from rat calcitonin receptor expressed in tk-ts 13 cells measured after 120 mins by scintillation proximity assay; type: cell-based; conditions: tk-ts13
Rattus norvegicus [14] = organism: Rattus norvegicus; assay: Ratio of IC50 for displacement of [125I]-calcitonin from rat calcitonin receptor expressed in tk-ts 13 cells to IC50 for displacement of [125I]-amylin from rat AMY3R (CTR+RAMP3) expressed in BHK-13 cells; type: cell-based
[15] = Solubility of the compound in lactate at pH 3 by UPLC analysis; type: physicochemical; conditions: lactate buffer
[16] = Solubility of the compound in lactate at pH 4 by UPLC analysis; type: physicochemical; conditions: lactate buffer
[17] = Solubility of the compound in lactate at pH 5 by UPLC analysis; type: physicochemical; conditions: lactate buffer
[18] = Solubility of the compound in bis-tris propane at pH 6 by UPLC analysis; type: physicochemical; conditions: bis-tris propane buffer
[19] = Solubility of the compound in bis-tris propane at pH 6.5 by UPLC analysis; type: physicochemical; conditions: bis-tris propane buffer
[20] = Solubility of the compound in bis-tris propane at pH 7 by UPLC analysis; type: physicochemical; conditions: bis-tris propane buffer
[21] = Solubility of the compound in bis-tris propane at pH 7.5 by UPLC analysis; type: physicochemical; conditions: bis-tris propane buffer
[22] = Solubility of the compound in bis-tris propane at pH 8 by UPLC analysis; type: physicochemical; conditions: bis-tris propane buffer
Insulin (Homo sapiens) [23] = target: Insulin (Homo sapiens) (UniProt P01308); assay: Effect on insulin (unknown origin) amyloid fibril formation assessed as lag time in glycyl-glycine buffer at pH 4 measured after 45 hrs by thioflavin-T fluorescence assay
Insulin (Homo sapiens) [24] = target: Insulin (Homo sapiens) (UniProt P01308); assay: Effect on insulin (unknown origin) amyloid fibril formation assessed as peptide recovery in glycyl-glycine buffer at pH 4 measured after 45 hrs by thioflavin-T fluorescence assay relative to control; set-up: concentration or dose not given beside the values
Rattus norvegicus [25] = assay: Reduction in food intake in Sprague-Dawley rat at 3 nmol/kg, sc administered as single dose measured upto 24 hrs relative to control; type: functional; set-up: scale not given: the % may be the effect or the level left; conditions: time hrs <=24
Rattus norvegicus [26] = assay: Reduction in food intake in Sprague-Dawley rat at 3 nmol/kg, sc administered as single dose measured after 24 to 48 hrs relative to control; type: functional; set-up: scale not given: the % may be the effect or the level left; conditions: time 24-48 hrs

Insulin (Homo sapiens), sequence (P01308 whole entry): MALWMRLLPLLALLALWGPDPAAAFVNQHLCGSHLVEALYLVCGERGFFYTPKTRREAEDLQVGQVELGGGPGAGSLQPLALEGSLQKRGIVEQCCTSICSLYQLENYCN

SMILES | Activity (Rattus norvegicus [1]) [%] | Activity (Rattus norvegicus [2]) [%] | EC50 [3] [pM] | EC50 [4] [pM] | Ratio EC50 (Homo sapiens [5]) | EC50 [6] [pM] | EC50 [7] [pM] | Ratio EC50 (Rattus norvegicus [8]) | IC50 [9] [pM] | IC50 [10] [pM] | Ratio IC50 (Homo sapiens [11]) | IC50 [12] [pM] | IC50 [13] [pM] | solubility [15] [µM] | solubility [16] [µM] | solubility [17] [µM] | solubility [18] [µM] | solubility [20] [µM] | TIME (Insulin (Homo sapiens) [23]) [h] | Activity (Insulin (Homo sapiens) [24]) [%] | further results
CC[C@H](C)[C@H](NC(=O)[C@H](CCC(=O)O)NC(=O)CNC(=O)[C@H](Cc1ccccc1)NC(=O)[C@H](CC(N)=O)NC(=O)[C@H](CC(N)=O)NC(=O)[C@H](CO)NC(=O)[C@H](CO)NC(=O)[C@H](CCCNC(=N)N)NC(=O)[C@H](Cc1cnc[nH]1)NC(=O)[C@H](CC(C)C)NC(=O)[C@H](Cc1ccccc1)NC(=O)[C@H](CCC(=O)O)NC(=O)[C@H](C)NC(=O)[C@H](CC(C)C)NC(=O)[C@H](CCCNC(=N)N)NC(=O)[C@H](CCC(N)=O)NC(=O)[C@@H](NC(=O)[C@H](C)NC(=O)[C@@H]1CSSC[C@H](NC(=O)[C@H](Cc2cnc[nH]2)NC(=O)CC[C@H](NC(=O)CCCCCCCCCCCCCCCCCCC(=O)O)C(=O)O)C(=O)N[C@@H](CC(N)=O)C(=O)N[C@@H]([C@@H](C)O)C(=O)N[C@@H](C)C(=O)N[C@@H]([C@@H](C)O)C(=O)N1)[C@@H](C)O)C(=O)N[C@@H](CC(C)C)C(=O)N[C@@H](CO)C(=O)N[C@@H](CCCNC(=N)N)C(=O)N[C@H](C(=O)N[C@@H](CC(N)=O)C(=O)N[C@H](C(=O)NCC(=O)N[C@@H](CO)C(=O)N[C@@H](CC(N)=O)C(=O)N[C@H](C(=O)N[C@@H](Cc1ccc(O)cc1)C(N)=O)[C@@H](C)O)C(C)C)[C@@H](C)O | 53 | 46 |  |  |  |  |  |  |  |  |  |  |  |  |  |  |  |  |  |  | 
CC[C@H](C)[C@H](NC(=O)[C@@H]1CCCN1C(=O)CNC(=O)[C@H](Cc1ccccc1)NC(=O)[C@H](CC(N)=O)NC(=O)[C@H](CC(N)=O)NC(=O)[C@H](CO)NC(=O)[C@H](CO)NC(=O)[C@H](Cc1c[nH]cn1)NC(=O)[C@H](Cc1cnc[nH]1)NC(=O)[C@H](CC(C)C)NC(=O)[C@H](Cc1ccccc1)NC(=O)[C@H](CCC(=O)O)NC(=O)[C@H](C)NC(=O)[C@H](CC(C)C)NC(=O)[C@H](CCCNC(=N)N)NC(=O)[C@H](CCC(N)=O)NC(=O)[C@@H](NC(=O)[C@H](C)NC(=O)[C@@H]1CSSC[C@H](NC(=O)[C@H](Cc2cnc[nH]2)NC(=O)CC[C@H](NC(=O)CCCCCCCCCCCCCCCCCCC(=O)O)C(=O)O)C(=O)N[C@@H](CC(N)=O)C(=O)N[C@@H]([C@@H](C)O)C(=O)N[C@@H](C)C(=O)N[C@@H]([C@@H](C)O)C(=O)N1)[C@@H](C)O)C(=O)N[C@@H](CC(C)C)C(=O)N1CCC[C@H]1C(=O)N1CCC[C@H]1C(=O)N[C@H](C(=O)N[C@@H](CC(N)=O)C(=O)N[C@H](C(=O)NCC(=O)N[C@@H](CO)C(=O)N[C@@H](CC(N)=O)C(=O)N[C@H](C(=O)N1CCC[C@H]1C(N)=O)[C@@H](C)O)C(C)C)[C@@H](C)O ({C20 diacid-γGlu}-HCNTATCATQRLAEFLHHSSNNFGPILPPTNVGSNTP-NH2; disulfide 2-7) |  |  | 91 | 67 | 1 | 121 | 109 | 1 | 293 | 264 | 1 | 74 | 134 | 200 (≈ 880 µg/mL) | 200 (≈ 880 µg/mL) | 200 (≈ 880 µg/mL) | 200 (≈ 880 µg/mL) | 200 (≈ 880 µg/mL) | 26 | 100 | Ratio IC50 (Rattus norvegicus [14]): 2; solubility [19]: 200 µM (≈ 880 µg/mL); solubility [21]: 200 µM (≈ 880 µg/mL); solubility [22]: 200 µM (≈ 880 µg/mL); Activity (Rattus norvegicus [25]): 68%; Activity (Rattus norvegicus [26]): 67%
CC[C@H](C)[C@H](NC(=O)[C@@H]1CCCN1C(=O)CNC(=O)[C@H](Cc1ccccc1)NC(=O)[C@H](CC(N)=O)NC(=O)[C@H](CC(N)=O)NC(=O)[C@H](CO)NC(=O)[C@H](CO)NC(=O)[C@H](Cc1cnc[nH]1)NC(=O)[C@H](CCCNC(=N)N)NC(=O)[C@H](CC(C)C)NC(=O)[C@H](Cc1ccccc1)NC(=O)[C@H](CCC(=O)O)NC(=O)[C@H](C)NC(=O)[C@H](CC(C)C)NC(=O)[C@H](CCCNC(=N)N)NC(=O)[C@H](CCC(N)=O)NC(=O)[C@@H](NC(=O)[C@H](C)NC(=O)[C@@H]1CSSC[C@H](NC(=O)[C@H](Cc2cnc[nH]2)NC(=O)[C@H](Cc2cnc[nH]2)NC(=O)[C@H](Cc2cnc[nH]2)NC(=O)CC[C@H](NC(=O)CCCCCCCCCCCCCCCCCCC(=O)O)C(=O)O)C(=O)N[C@@H](CC(N)=O)C(=O)N[C@@H]([C@@H](C)O)C(=O)N[C@@H](C)C(=O)N[C@@H]([C@@H](C)O)C(=O)N1)[C@@H](C)O)C(=O)N[C@@H](CC(C)C)C(=O)N1CCC[C@H]1C(=O)N1CCC[C@H]1C(=O)N[C@H](C(=O)N[C@@H](CC(N)=O)C(=O)N[C@H](C(=O)NCC(=O)N[C@@H](CO)C(=O)N[C@@H](CC(N)=O)C(=O)N[C@H](C(=O)N[C@@H](Cc1ccc(O)cc1)C(N)=O)[C@@H](C)O)C(C)C)[C@@H](C)O ({C20 diacid-γGlu}-HHHCNTATCATQRLAEFLRHSSNNFGPILPPTNVGSNTY-NH2; disulfide 4-9) | 70 | 45 | 72 | 407 | 6 | 82 | 6760 | 82 |  |  |  |  |  | 200 (≈ 952 µg/mL) | 200 (≈ 952 µg/mL) | 200 (≈ 952 µg/mL) | 200 (≈ 952 µg/mL) | 9 (≈ 42.8 µg/mL) | 45 | 50 | 
CC[C@H](C)[C@H](NC(=O)[C@@H]1CCCN1C(=O)CNC(=O)[C@H](Cc1ccccc1)NC(=O)[C@H](CC(N)=O)NC(=O)[C@H](CC(N)=O)NC(=O)[C@H](CO)NC(=O)[C@H](CO)NC(=O)[C@H](Cc1cnc[nH]1)NC(=O)[C@H](Cc1cnc[nH]1)NC(=O)[C@H](CC(C)C)NC(=O)[C@H](Cc1ccccc1)NC(=O)[C@H](CCC(=O)O)NC(=O)[C@H](C)NC(=O)[C@H](CC(C)C)NC(=O)[C@H](CCCNC(=N)N)NC(=O)[C@H](CCC(N)=O)NC(=O)[C@@H](NC(=O)[C@H](C)NC(=O)[C@@H]1CSSC[C@H](NC(=O)[C@H](CCCNC(=N)N)NC(=O)CC[C@H](NC(=O)CCCCCCCCCCCCCCCCCCC(=O)O)C(=O)O)C(=O)N[C@@H](CC(N)=O)C(=O)N[C@@H]([C@@H](C)O)C(=O)N[C@@H](C)C(=O)N[C@@H]([C@@H](C)O)C(=O)N1)[C@@H](C)O)C(=O)N[C@@H](CC(C)C)C(=O)N1CCC[C@H]1C(=O)N1CCC[C@H]1C(=O)N[C@H](C(=O)N[C@@H](CC(N)=O)C(=O)N[C@H](C(=O)NCC(=O)N[C@@H](CO)C(=O)N[C@@H](CC(N)=O)C(=O)N[C@H](C(=O)N[C@@H](Cc1ccc(O)cc1)C(N)=O)[C@@H](C)O)C(C)C)[C@@H](C)O ({C20 diacid-γGlu}-RCNTATCATQRLAEFLHHSSNNFGPILPPTNVGSNTY-NH2; disulfide 2-7) |  |  | 121 | 107 | 1 | 188 | 539 | 3 | 192 | 39 | 0.2 | 29 | 87 | 200 (≈ 897 µg/mL) | 200 (≈ 897 µg/mL) | 200 (≈ 897 µg/mL) | 200 (≈ 897 µg/mL) | 160 (≈ 717 µg/mL) | 12 | 26 | Ratio IC50 (Rattus norvegicus [14]): 3; solubility [19]: 174 µM (≈ 780 µg/mL); solubility [21]: 200 µM (≈ 897 µg/mL); solubility [22]: 200 µM (≈ 897 µg/mL); Activity (Rattus norvegicus [25]): 56%; Activity (Rattus norvegicus [26]): 53%
